Measurements as given in patent US20030187007A1, “Inhibitors of protein kinase for the treatment of disease” (priority 2001, published 2003).

Tests used:
Assay type in all cases: biochemical
[1] = target: CDK2 complexed with cyclin A (Homo sapiens, UniProt P24941); assay: Cyclin dependent kinase activity assay, phosphorylation of synthetic peptide PKTPKKAKKLRRR; details: 0.1 mM ATP, read-out: CDK 2 Activity*
How it was run: (§1)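 Radiometric filter-binding assay: 0.1 mM ATP plus ³³P-γ-ATP, 0.1 mM peptide, 1 mM DTT, 10 mM MgCl2 in 100 mM HEPES pH 7.4, with enzyme complex at 0.3–0.4 U/mL. Incubated 2 h at 30 °C; peptide captured on P81 phosphocellulose, washed with 0.5% phosphoric acid and counted by scintillation.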

[2] = target: CDK5 complexed with p25 (Homo sapiens, UniProt Q00535); assay: as above; details: CDK5 complexed with p25, 0.1 mM ATP; read-out: CDK 5 Activity*
How it was run: as §1

[3] = target: KDR (Homo sapiens, UniProt P35968); assay: Enzyme assay for  (KDR), IC50 determination; details: 50 nM KDR, 500 μM ATP
Method: Enzyme assays for IC50 determinations were performed in 96-well titer plates, in a total reaction volume of 50 μL. Each reaction contained 1.5 μL of appropriate dilutions of inhibitor, 50 mM Hepes, pH 7.4, 1 mM DTT, 10 mM magnesium chloride, 2 mM phospho-poly(E4Y) (Sigma Chemical Company), 500 μM unlabeled ATP, 0.0025 μM [^33P]ATP (Amersham Pharmacia Biotech), and 50 nM KDR. All components except KDR were added to the wells, and the reaction was started by the addition of the enzyme. The reactions were mixed and incubated at room temperature for 1 hr, after which the reactions were quenched by the addition of 50 μL of 8% phosphoric acid. At this point, 90 μL aliquots of the samples were applied to positively charged DEAE 96-well filter plates (Millipore Corporation MADENOB10). The plates were incubated for 30 min at room temperature. The samples were aspirated and the wells were washed 3 times with 200 μL of 0.5% phosphoric acid. To each well, 50 μL of scintillation cocktail was added and counted for 60 sec in a TopCount microplate scintillation counter (Packard Instrument Company). The concentration of a compound that inhibited the activity of KDR by 50% (IC50) was determined based its inhibition curve.

CDK5 complexed with p25, sequence (Q00535 whole entry): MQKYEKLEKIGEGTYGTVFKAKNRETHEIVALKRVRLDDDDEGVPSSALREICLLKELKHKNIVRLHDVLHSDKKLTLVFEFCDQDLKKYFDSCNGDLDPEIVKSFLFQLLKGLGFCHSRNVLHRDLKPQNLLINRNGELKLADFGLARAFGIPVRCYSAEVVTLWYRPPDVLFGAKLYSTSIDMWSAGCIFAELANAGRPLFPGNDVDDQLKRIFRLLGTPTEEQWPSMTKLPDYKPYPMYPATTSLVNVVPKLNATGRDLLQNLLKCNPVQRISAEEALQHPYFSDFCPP
CDK5 complexed with p25, sequence (Q15078 99-307 partner limits assumed): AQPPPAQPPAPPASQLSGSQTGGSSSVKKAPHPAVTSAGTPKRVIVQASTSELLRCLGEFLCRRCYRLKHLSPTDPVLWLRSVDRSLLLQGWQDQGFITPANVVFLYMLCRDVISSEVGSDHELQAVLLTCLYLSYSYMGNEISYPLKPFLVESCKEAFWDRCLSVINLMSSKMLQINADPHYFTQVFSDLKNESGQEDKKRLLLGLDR
KDR, sequence (P35968 20-1356): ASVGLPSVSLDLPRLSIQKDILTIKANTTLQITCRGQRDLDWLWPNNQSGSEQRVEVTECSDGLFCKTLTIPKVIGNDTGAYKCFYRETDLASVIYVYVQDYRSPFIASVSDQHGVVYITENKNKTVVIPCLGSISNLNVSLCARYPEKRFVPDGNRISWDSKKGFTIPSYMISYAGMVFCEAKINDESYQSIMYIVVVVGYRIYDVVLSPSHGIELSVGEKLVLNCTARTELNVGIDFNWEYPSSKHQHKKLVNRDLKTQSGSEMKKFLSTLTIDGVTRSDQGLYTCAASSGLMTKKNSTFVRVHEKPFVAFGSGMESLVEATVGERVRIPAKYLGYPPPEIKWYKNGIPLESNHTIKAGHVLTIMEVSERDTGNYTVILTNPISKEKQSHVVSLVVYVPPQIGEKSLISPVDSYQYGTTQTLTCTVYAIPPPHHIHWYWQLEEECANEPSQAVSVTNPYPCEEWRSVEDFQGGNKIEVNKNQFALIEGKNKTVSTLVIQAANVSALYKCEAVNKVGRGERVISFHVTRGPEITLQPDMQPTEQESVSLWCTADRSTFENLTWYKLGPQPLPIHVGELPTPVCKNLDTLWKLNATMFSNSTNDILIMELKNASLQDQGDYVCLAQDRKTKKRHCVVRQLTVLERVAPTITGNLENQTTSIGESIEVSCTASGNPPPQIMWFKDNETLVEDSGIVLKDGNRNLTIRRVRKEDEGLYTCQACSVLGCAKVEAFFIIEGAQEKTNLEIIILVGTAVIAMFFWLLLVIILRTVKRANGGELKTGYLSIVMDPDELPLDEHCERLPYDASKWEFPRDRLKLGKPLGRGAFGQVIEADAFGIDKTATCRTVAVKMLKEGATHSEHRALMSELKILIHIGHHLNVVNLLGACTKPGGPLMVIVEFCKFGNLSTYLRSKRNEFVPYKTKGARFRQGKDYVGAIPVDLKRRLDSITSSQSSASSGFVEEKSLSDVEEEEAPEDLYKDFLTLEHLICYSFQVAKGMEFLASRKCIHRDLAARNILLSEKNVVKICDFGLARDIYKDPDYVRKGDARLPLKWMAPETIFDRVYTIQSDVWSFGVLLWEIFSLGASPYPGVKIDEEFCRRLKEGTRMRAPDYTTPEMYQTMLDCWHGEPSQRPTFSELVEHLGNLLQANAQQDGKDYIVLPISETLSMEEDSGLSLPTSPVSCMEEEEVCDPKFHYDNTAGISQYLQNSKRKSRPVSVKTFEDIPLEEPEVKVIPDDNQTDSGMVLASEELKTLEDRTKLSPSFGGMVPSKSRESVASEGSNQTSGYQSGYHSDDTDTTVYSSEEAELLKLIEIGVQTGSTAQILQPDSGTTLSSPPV

SMILES | IC50 [1] | IC50 [2] | IC50 [3]
Nc1nc(-c2ccc([N+](=O)[O-])cc2)cc(-c2cc(-c3ccc(O)cc3)ccc2O)n1 [Example 89, 3-[2-Amino-6-(4-nitro-phenyl)-pyrimidin-4-yl]-biphenyl-4,4′-diol] | < 500 nM | < 500 nM | 1000 to 20000 nM
Nc1ccc(-c2cc(-c3cc(-c4ccc(O)cc4)ccc3O)nc(N)n2)cc1 [Example 90, 3-[2-Amino-6-(4-amino-phenyl)-pyrimidin-4-yl]-biphenyl-4,4′-diol] | < 500 nM | < 500 nM | < 1000 nM
Nc1cccc(-c2cc(-c3cc(-c4ccc(O)cc4)ccc3O)nc(N)n2)c1 [Example 91, 3-[2-Amino-6-(3-amino-phenyl)-pyrimidin-4-yl]-biphenyl-4,4′-diol] | < 500 nM | < 500 nM | < 1000 nM
